Converted amounts (≈) assume the structure as drawn. “Also recorded” adds a separate entry of the source.
Key:
[1] = target: T1, β-lactamase of S. aureus 95 (Staphylococcus aureus, UniProt P00807); experiment: Minimum protective concentration against β-lactamase of S. aureus 95; assay type: biochemical; details: protection of chromogenic cephem indicator from hydrolysis within 40 min, average of duplicates
T1 construct: chromogenic cephalosporin (nitrocefin type) hydrolysis
From the text: (§1) Determination of Minimum Protective Concentrations. The β-lactamase inhibitory properties of cephalosporin-phloroglucide esters VIII and IX as well as 7-(phloroglucidamido)cephalosporins X and XI were studied. Cephalosporins XV and XVI as well as clavulanic acid (XVII) were used in vitro as the reference compound. The average values of duplicate determinations and the ability of compounds to inhibit the hydrolysis of 3-[E-(2,4-dinitro)styryl]-(6R,7R)-7-(2-thienylacetamido)-3-cephem-4-carboxylic acid by β-lactamases from S. aureus 95 and Ps. aeruginosa 18S-H. Minimum protective concentrations (MPC) values were determined by the procedure of O'Callaghan ct al. [O'Callaghan C. H. ct al. Antimicrob. Agents Chemother. 1972, 1, 283] and are the lowest concentrations of β-lactams needed to protect the indicator from hydrolysis by β-lactamases under standard test conditions within 40 min. The hydrolysis of indicator was evidenced by the appearance of a distinct red color.

Ps. aerureus 1101-75 = experiment: Minimum inhibitory concentration, agar dilution, Ps. 1101-75; assay type: cell-based, Pseudomonas aeruginosa; details: Pseudomonas aeruginosa, 110175; agar dilution, average of duplicate determinations; read-out: Minimum Inhibitory Concentration (MIC), Ps. aerureus 1101-75
Description: (§2) Determination of Minimum Inhibitory Concentrations. The screening experiments in vitro were carried out for antibacterial activities of the phloroglucide analogs II-VII, XII-XIV, bifunctional cephalosporins VIII and IX, as well as 7-(phloroglucidamido)cephalosporins X and XI. Cephalosporins XV and XVI were used as the reference compounds. The lowest concentrations of antibiotics needed for prevention of visible growth of microorganisms; reported as the average values of duplicate determinations. Minimum inhibitory concentrations (MIC) values obtained by use of an agar dilution method whereby organisms were deposited onto medicated agar plates by the replication device of Steers et al [Steers, F. et al. Antibiot. Chemother. 1959, 9, 307].

C. albicans = experiment: Minimum inhibitory concentration, agar dilution, C. albicans; assay type: cell-based; details: Candida albicans; agar dilution, average of duplicate determinations; read-out: Minimum Inhibitory Concentration (MIC), C. albicans
Description: as §2

S. aureus FDA 209P = experiment: Minimum inhibitory concentration, agar dilution, S. aureus FDA 209P; assay type: cell-based, Staphylococcus aureus FDA 209P; details: Staphylococcus aureus, FDA209P; agar dilution, average of duplicate determinations
Description: as §2

[2] = tested on: pathogenic microorganisms; experiment: Antibacterial activity in vitro (statements in words); assay type: cell-based
Description: as §2

PS. aerureus 18S-H = experiment: Minimum inhibitory concentration, agar dilution, Ps. 18S-H; assay type: cell-based, Pseudomonas aeruginosa 18S-H; details: Pseudomonas aeruginosa, 18SH, read-out: Minimum Inhibitory Concentration (MIC), PS. aerureus 18S-H
Description: as §2

S. aureus 95 = experiment: Minimum inhibitory concentration, agar dilution, S. aureus 95; assay type: cell-based, Staphylococcus aureus 95; details: Staphylococcus aureus, 95; agar dilution, average of duplicates; β-lactamase-producing, methicillin resistant organism; read-out: Minimum Inhibitory Concentration (MIC), S. aureus 95
Description: as §2

[3] = tested on: β-lactamases of S. aureus 95 and Ps. aeruginosa 18S-H; experiment: Behaviour towards β-lactamases (statements in words); assay type: biochemical
From the text: as §1

[4] = tested on: β-lactamase of PS. aeruginosa 18S-H; experiment: Minimum protective concentration against β-lactamase of Ps. aeruginosa 18S-H; assay type: biochemical; details: protection of chromogenic cephem indicator from hydrolysis within 40 min, average of duplicates
From the text: as §1

[5] = Stability in the absence of β-lactamases in phosphate buffer solution; assay type: physicochemical; details: 37° C., pH 6.5

T1 sequence (P00807 25-281): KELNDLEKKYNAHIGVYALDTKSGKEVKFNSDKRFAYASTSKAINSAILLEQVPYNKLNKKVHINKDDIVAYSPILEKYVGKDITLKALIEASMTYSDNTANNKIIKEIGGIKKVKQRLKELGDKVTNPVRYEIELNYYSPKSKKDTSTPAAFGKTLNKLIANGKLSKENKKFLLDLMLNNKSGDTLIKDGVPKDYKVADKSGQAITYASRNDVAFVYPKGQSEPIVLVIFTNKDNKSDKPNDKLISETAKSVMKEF

Structure (SMILES): CC(=O)OCC1=C(C(=O)O)N2C(=O)[C@@H](NC(=O)c3cccc(Cc4cc(Cl)cc(Cc5ccccc5O)c4O)c3O)[C@H]2SC1 [X, 7-{3-[5-Chloro-2-hydroxy-3-(2-hydroxybenzyl)benzyl]-2-hydroxy-benzamido}cephalosporanic Acid]
- Minimum Protective Concentration (MPC), β-lactamase of S. aureus 95 [1]: 95.20 µg/mL
- MIC (Ps. aerureus 1101-75): 0.28 µg/mL (≈ 0.438 µM)
- MIC (C. albicans): 28.3 µg/mL (≈ 44.3 µM)
- MIC (S. aureus FDA 209P): 0.35 µg/mL (≈ 0.548 µM)
- antibacterial activity in words [2]: notable antibacterial activity; also recorded: potent phloroglucide-like antibacterial activity
- MIC (PS. aerureus 18S-H): 0.45 µg/mL (≈ 0.704 µM)
- MIC (S. aureus 95): 0.28 µg/mL (≈ 0.438 µM)
- hydrolysis by / stability towards β-lactamases, in words [3]: stability towards β-lactamases
- β-lactamase inhibitory property, in words [3]: did not exhibit notable β-lactamase inhibitory property
- Minimum Protective Concentration (MPC), β-lactamase of PS. aeruginosa 18S-H [4]: 99.78 µg/mL

Structure (SMILES): CC(=O)OCC1=C(C(=O)O)N2C(=O)[C@@H](NC(=O)c3cccc(C(=O)c4cc(Cl)cc(C(=O)c5ccccc5O)c4O)c3O)[C@H]2SC1 [XI, 7-{3-[5-Chloro-2-hydroxy-3-(2-hydroxybenzoyl)benzoyl]-2-hydroxy-benzamido}cephalosporanic Acid]
- Minimum Protective Concentration (MPC), β-lactamase of S. aureus 95 [1]: 88.68 µg/mL
- MIC (Ps. aerureus 1101-75): 0.79 µg/mL (≈ 1.18 µM)
- MIC (C. albicans): 14.2 µg/mL (≈ 21.3 µM)
- MIC (S. aureus FDA 209P): 0.78 µg/mL (≈ 1.17 µM)
- antibacterial activity in words [2]: notable antibacterial activity
- MIC (PS. aerureus 18S-H): 0.38 µg/mL (≈ 0.57 µM)
- MIC (S. aureus 95): 0.45 µg/mL (≈ 0.675 µM)
- hydrolysis by / stability towards β-lactamases, in words [3]: stability towards β-lactamases
- β-lactamase inhibitory property, in words [3]: did not exhibit notable β-lactamase inhibitory property
- Minimum Protective Concentration (MPC), β-lactamase of PS. aeruginosa 18S-H [4]: 93.45 µg/mL

Structure (SMILES): O=C(O)[C@H]1/C(=C/CO)O[C@@H]2CC(=O)N21 [XVII, clavulanic acid, reference compound]
- Minimum Protective Concentration (MPC), β-lactamase of S. aureus 95 [1]: 0.38 µg/mL
- β-lactam ring destructed (time) [5]: ≤ 13 h
- Minimum Protective Concentration (MPC), β-lactamase of PS. aeruginosa 18S-H [4]: 3.00 µg/mL

Reference: patent US6288265A, “Phloroglucidic acid and derivatives as antibacterial agents” (National Science Council, priority 1999, dated 2001)
